Source: patent US9737523B2, “Anti-fibrogenic compounds, methods and uses thereof” (priority 2013, dated 2017)

Tests used:
MMP-3 = MMP-3 expression in human dermal fibroblasts, Western blot; format: cell-based; conditions: various concentrations, 48 hours, dose-dependent
Method: Cells were then harvested by trypsinization and western blot analysis was performed.
Cell debris was removed by centrifugation at 20,000×g for 10 minutes. The protein concentration in supernatant was determined using the MicroBCA™ method (Pierce™, Rockford, Ill.). Proteins in supernatant were mixed with protein sample loading buffer (final concentration: 60 mM Tris-HCl (pH 6.80), 2% SDS, 10% glycerol, 1.5% β-mercaptoethanol, 0.002% bromophenol blue) and size fractioned by 10% of SDS-polyacrylamide gel. After proteins were transferred onto nitrocellulose membrane by iBlot™ (Invitrogen Life Technologies™), non-specific binding were blocked with phosphate buffer saline twenty 20 (PBS-T) containing 5% skim milk for 1 hour. The membrane was then incubated with primary antibody overnight. After incubation with a secondary antibody for 1 hour, protein bands were visualized by an enhanced chemiluminescence (ECL™) detection system (Santa Cruz Biotechnology™, Santa Cruz, Calif.). […] The secondary antibodies were either goat anti-mouse IgG (H+L) HPR conjugate or goat anti-rabbit IgG (H+L) HPR conjugate (Bio-rad Laboratory™ (Mississauga, ON, Canada). Secondary antibodies were used at a concentration of 1:3000.

MMPs = test: MMP activity in conditioned media of fibroblasts, SensoLyte 520 generic MMP assay (FRET); format: cell-based, human; conditions: 50 μg/ml, 48 hours
Method: The activity of MMPs was assessed using a F-FAM/QXL™ 520 fluorescence resonance energy transfer (FRET) peptide as the MMP substrate (SensoLyte 520™ generic MMP assay kit, AnaSpec, Inc.™, Fremont, Calif.) according to the manufacturer's protocol. In brief, cells were treated with or without 50 μg/ml of kynurenine for 48 hours. Conditioned media were collected and incubated with 1 mM of APMA (4-aminophenyl-mercuric acetate, in component C, AnaSpect™) at 37° C. for 3 hrs. After activation MMPs with APMA, 50 μl/well in 96-well plate of conditioned media was mixed with 50 μl of MMP substrate solution. After incubated at room temperature for 60 minutes, the fluorescence intensity at EX/EM=490 nm/520 nm in each sample including the substrate control were measured using Infinite F500™ fluorescence microplate reader (Tecan Group Ltd™, Morrisville, N.C.).

human dermal fibroblasts = test: MTT proliferation assay of human dermal fibroblasts; format: cell-based; conditions: up to 150 μg/ml, 48 hours
Method: The effect of kynurenine on human dermal fibroblast proliferation was detected by MTT [3-(4,5-Dimethylthiazol-2-yl)-2,5-diphenyltetrazolium bromide] assay. In brief, 10,000 cells were seeded on a 24 well-plate and incubated with different concentrations of kynurenine for 48 hours. Media were removed and 0.2 ml of MTT (5 mg/ml in DMEM containing 2% FBS) was added. Cells were incubated with MIT for 4 hours. After washing 3 times with PBS, 0.2 ml of DMSO was added to dissolve the crystals. Absorbance was measured at 570 nm.

fibronectin = test: Fibronectin mRNA in human dermal fibroblasts, real-time PCR; format: cell-based; conditions: various concentration

## Nc1ccccc1C(=O)CC(N)C(=O)O (racemic) [kynurenine]
MMP-3
  MMP-3 expression: significantly increased
MMPs
  mean activity of MMPs in conditioned media versus control media: significantly higher
Human dermal fibroblasts
  fibroblast proliferation (MTT): no significant effect
fibronectin
  fibronectin expression (mRNA): capable of down-regulating
